Experiments:
Colon = experiment: Drug absorption in anesthetized rat colon at pH 6.8; type: ADME, tissue-based; details: in vivo
physchem [1] = experiment: physchem
Neuron = experiment: Increase in membrane potential in mollusc neurons assessed as conductance of potassium at pH 7.8 relative to salicylic acid; type: functional, Mollusca
physchem [2] = details: octanol/aqueous phase
physchem [3] = details: octanol/water
Description: (§1) Octanol-water partition coefficient, log P of the compound

physchem [4] = details: pH 7.8
Description: Dissociation constant, pKa of the compound at pH 7.8

[5] = octanol/water
physchem [6] = details: octanol/aqueous phase; remark: listed apart in the source
Description: Octanol-aqueous phase partition coefficient, log P of the compound

physchem [7] = details: pH 6.8
Description: Dissociation constant, pKa of the compound at pH 6.8

[8] = Dissociation constant, pKa of the compound at pH 5.3; type: physicochemical
Small intestine = experiment: Drug absorption in rat small intestine; type: ADME, tissue-based; details: in vivo
[9] = Uncoupling of oxidative phosphorylation in rat liver mitochondria at pH 6 relative to control; type: functional
[10] = Octanol-aqueous phase distribution coefficient, log D of the compound at pH 5; type: physicochemical
[11] = Uncoupling of oxidative phosphorylation in rat liver mitochondria at pH 5 relative to control; type: functional
[12] = Octanol-aqueous phase distribution coefficient, log D of the compound at pH 7; type: physicochemical
[13] = Octanol-aqueous phase distribution coefficient, log D of the compound at pH 8; type: physicochemical
[14] = Uncoupling of oxidative phosphorylation in rat liver mitochondria at pH 7 relative to control; type: functional
[15] = Uncoupling of oxidative phosphorylation in rat liver mitochondria at pH 8 relative to control; type: functional
[16] = Octanol-aqueous phase distribution coefficient, log D of the compound at pH 6; type: physicochemical
[17] = octanol/water; remark: listed apart in the source
Description: as §1

[18] = Octanol-aqueous phase […] of the compound at pH 7.10; type: physicochemical; details: pH 7.1
[19] = Dissociation constant, pKa of the compound by titrimetric analysis; type: physicochemical

Compound	log%Abs (Colon)	pKa (physchem [1])	fold change (FC) (Neuron)	logD (physchem [2])	logP (physchem [3])	pKa (physchem [4])	other results
Oc1ccccc1 [PHENOL]	1.55						
O=C(O)c1ccc(O)cc1O [2,4-DIHYDROXYBENZOIC ACID]		4.7	-1	-1.5	1.6		
O=C(O)c1cccc(O)c1 [3-HYDROXYBENZOIC ACID]			-1		1.5	3.74	logD [5]: -2.24
c1ccc(CC2=NCCN2)cc1 [TOLAZOLINE]	0.6			-2.35			logP (physchem [6]): 2.65; pKa (physchem [7]): 3.5; pKa [8]: 5; log%Abs (Small intestine): 0.78
Nc1ccc([N+](=O)[O-])cc1 [4-NITROANILINE]	1.7						log%Abs (Small intestine): 1.83
O=[N+]([O-])c1cccc(O)c1 [3-NITRO-PHENOL]	1.64			2			logP (physchem [6]): 2; pKa (physchem [7]): 1.4
O=C(O)c1cc(Br)cc(Br)c1O		2.26	1.6	-1.33	4.21	5.54	
Cc1cc([N+](=O)[O-])c(O)c([N+](=O)[O-])c1C		4.2					logP (physchem [6]): 2.54; fold change (FC) [9]: 4.51; logD [10]: 1.64; fold change (FC) [11]: 4.92; logD [12]: -0.26; logD [13]: -1.26; fold change (FC) [14]: 4.36; fold change (FC) [15]: 3.95; logD [16]: 0.74
O=[N+]([O-])c1ccccc1O [NITROPHENOLATE]	1.74			1.58			logP (physchem [6]): 1.79; pKa (physchem [7]): 0.2
O=C(O)c1cc([N+](=O)[O-])ccc1O	0.3	2.32	0	-3.27	2.21	5.48	logP (physchem [6]): 1.98; pKa (physchem [7]): 4.5
Cc1cc(=O)n(-c2ccccc2)n1C [ANTIPYRINE]	1.3						pKa (physchem [7]): 5.4; pKa [8]: 3.9; log%Abs (Small intestine): 1.51
COc1ccc(O)c(C(=O)O)c1		2.86	0.18	-2.53	2.41	4.94	
O=C(O)c1ccccc1Cl			-0.7		1.98	4.88	logD [5]: -2.9
Cc1ccc(N)cc1	1.71						pKa (physchem [7]): 1.5; pKa [8]: 0; log%Abs (Small intestine): 1.77
CN[C@@H](C)[C@H](O)c1ccccc1 [EPHEDRINE]	0.95						log%Abs (Small intestine): 0.85
CC(=O)Nc1ccccc1 [ACETANILIDE]	1.56			1.16			pKa (physchem [7]): 6.5; pKa [8]: 5; log%Abs (Small intestine): 1.62
O=C(O)c1cc(O)ccc1O [GENTISIC ACID]			-0.7			4.83	
O=C(O)c1cc(I)cc(I)c1O		2.33	2	-0.69	4.78	5.47	
Cc1ccc(C(=O)O)cc1 [4-METHYLBENZOIC ACID]						3.44	logD [5]: -2.09
O=C(O)c1cc(Cl)cc(Cl)c1O		2.3	1.48	-1.62		5.5	logP [17]: 3.88
O=C(O)c1ccc(Br)cc1		3.98	0.4		2.86	3.82	logD [5]: -0.96
O=C(O)c1cccc(Br)c1			0.48		2.84	3.94	logD [5]: -1.1
O=C(O)c1c(O)cccc1O		2.7	0.18	-2.9	2.2	5.1	
O=C(O)c1cccc([N+](=O)[O-])c1	1	3.47	-0.7		1.83	4.33	logP (physchem [6]): 1.83; logD [5]: -2.5; pKa (physchem [7]): 3.4

Compound	log%Abs (Colon)	pKa (physchem [1])	fold change (FC) (Neuron)	logD (physchem [2])	logP (physchem [3])	pKa (physchem [4])	other results
O=C(O)c1cc(Cl)ccc1O [5-CHLOROSALICYLIC ACID]		2.63	1	-2.15	3.02	5.17	
Cc1c(N(C)C)c(=O)n(-c2ccccc2)n1C [AMINOPYRINE]	1.32						pKa (physchem [7]): 1.8; pKa [8]: 0.3; log%Abs (Small intestine): 1.52
O=C(O)c1cc(Br)ccc1O		2.62	1.23	-1.97	3.21	5.18	
CN1CC[C@]23CCCC[C@H]2[C@H]1Cc1ccc(O)cc13 [LEVORPHANOL]	1.11			0.02			logD [18]: 3.02; pKa [19]: 3
O=C(O)c1ccc(Cl)c(Cl)c1		3.66	0.93		3.46	4.14	logD [5]: -0.68
C=C[C@H]1C[N@@]2CC[C@H]1C[C@H]2[C@H](O)c1ccnc2ccc(OC)cc12 [QUININE]	1.3						log%Abs (Small intestine): 1.18
O=C(O)c1ccc([N+](=O)[O-])cc1 [4-NITROBENZOIC ACID]		3.41	-0.52		1.89	4.39	logD [5]: -2.5
CCCCC1C(=O)N(c2ccccc2)N(c2ccccc2)C1=O [PHENYLBUTAZONE]	1.58						
CCCC(C)C1(CC)C(=O)NC(=S)NC1=O (stereo not given) [THIOPENTAL]	1.7			2.44			logP (physchem [6]): 2.5; pKa (physchem [7]): 0.8
O=[N+]([O-])c1ccc(O)cc1 [P-NITROPHENOL]							logP (physchem [6]): 1.96; fold change (FC) [9]: 3.37; logD [10]: 1.96; fold change (FC) [11]: 3.3; logD [12]: 1.66; logD [13]: 0.96; fold change (FC) [14]: 3.51; fold change (FC) [15]: 3.39; logD [16]: 1.96
O=C(O)c1cc([N+](=O)[O-])cc([N+](=O)[O-])c1O [3,5-DINITROSALICYLIC ACID]		1.55	0		2.21	6.25	logD [5]: -4.04
O=C(O)c1ccccc1 [BENZOIC ACID]	1.28						
O=C(O)c1cccc(I)c1		4	0.6		3.13		logD [5]: -0.67
CC(C)Cc1cc([N+](=O)[O-])c(O)c([N+](=O)[O-])c1		4.3					logP (physchem [6]): 3.32; fold change (FC) [9]: 4.88; logD [10]: 2.52; fold change (FC) [11]: 5.16; logD [12]: 0.62; logD [13]: -0.38; fold change (FC) [14]: 4.71; fold change (FC) [15]: 4.48; logD [16]: 1.62
O=C(O)c1cccc(Cl)c1			0.18		2.68	3.98	logD [5]: -1.3
CC(C)CCCCCc1cc([N+](=O)[O-])c(O)c([N+](=O)[O-])c1		4.1					logP (physchem [6]): 5.32; fold change (FC) [9]: 5.89; logD [10]: 4.32; fold change (FC) [11]: 6.08; logD [12]: 2.42; logD [13]: 1.42; fold change (FC) [14]: 5.64; fold change (FC) [15]: 5.41; logD [16]: 3.42
O=C(O)c1cc(I)ccc1O		2.65	1.43	-1.63	3.52	5.15	
CC(C)CCc1cc([N+](=O)[O-])c(O)c([N+](=O)[O-])c1		4.1					logP (physchem [6]): 3.82; fold change (FC) [9]: 5.42; logD [10]: 2.82; fold change (FC) [11]: 5.5; logD [12]: 0.92; logD [13]: -0.08; fold change (FC) [14]: 5.18; fold change (FC) [15]: 4.92; logD [16]: 1.92
O=C(O)c1ccc(I)cc1		3.91	0.54		3.02	3.89	logD [5]: -0.87
Nc1cccc([N+](=O)[O-])c1 [3-NITROANILINE]	1.68			1.37			logP (physchem [6]): 1.37; pKa (physchem [7]): 4.3; pKa [8]: 2.8; log%Abs (Small intestine): 1.89
O=C(O)c1ccccc1O [SALICYLIC ACID]	1.08				2.21		logD [5]: -2.62
CCC(=O)c1ccc(O)cc1 [PAROXYPROPIONE]	1.66			1.81			logP (physchem [6]): 1.85; pKa (physchem [7]): 1
Cn1c(=O)c2[nH]cnc2n(C)c1=O.O [THEOPHYLLINE]				-0.78			logP (physchem [6]): -0.78; log%Abs (Small intestine): 1.46
Nc1ccccc1 [ANILINE]	1.64			0.82			log%Abs (Small intestine): 1.73
